The source made the active and inactive calls. The calls are words filed in the database; no cut-off is given here.
Columns and labels:
MV4-11 [1] = experiment: Induction of apoptosis in human MV4-11 cells assessed as necrotic cells at 1 nM after 6 hrs by AnnexinV-FITC/propidium iodide staining based flow cytometry (reference value: 0.16 %); assay type: functional
HepG2 = experiment: Antiproliferative activity against human HepG2 cells incubated for 72 hrs by MTT assay; assay type: functional, cell-based; conditions: HepG2, 72 h
B16 = experiment: Antiproliferative activity against mouse B16 cells incubated for 72 hrs by MTT assay; assay type: functional, cell-based; conditions: B16, 72 h
[2] = biological target: T1, Protein cereblon/Cyclin-dependent kinase 9 (Homo sapiens, UniProt P50750+Q96SW2); experiment: PROTAC activity at CRBN/CDK9 in human MV4-11 cells assessed as reduction in CDK9 protein expression at 100 nM measured after 3 hrs by whole proteome mass spectrometry; assay type: cell-based
Target sequence in this assay (P50750 whole entry, looked up): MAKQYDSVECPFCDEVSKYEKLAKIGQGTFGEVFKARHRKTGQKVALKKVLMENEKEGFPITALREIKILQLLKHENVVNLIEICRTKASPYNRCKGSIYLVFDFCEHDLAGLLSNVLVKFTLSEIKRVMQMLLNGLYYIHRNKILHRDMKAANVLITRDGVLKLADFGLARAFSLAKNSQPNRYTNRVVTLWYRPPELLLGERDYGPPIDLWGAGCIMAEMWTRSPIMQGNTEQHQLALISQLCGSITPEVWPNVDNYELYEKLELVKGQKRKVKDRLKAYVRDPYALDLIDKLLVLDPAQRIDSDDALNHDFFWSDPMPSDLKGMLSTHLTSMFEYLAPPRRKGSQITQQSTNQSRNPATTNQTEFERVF
Target sequence in this assay (Q96SW2 whole entry, looked up): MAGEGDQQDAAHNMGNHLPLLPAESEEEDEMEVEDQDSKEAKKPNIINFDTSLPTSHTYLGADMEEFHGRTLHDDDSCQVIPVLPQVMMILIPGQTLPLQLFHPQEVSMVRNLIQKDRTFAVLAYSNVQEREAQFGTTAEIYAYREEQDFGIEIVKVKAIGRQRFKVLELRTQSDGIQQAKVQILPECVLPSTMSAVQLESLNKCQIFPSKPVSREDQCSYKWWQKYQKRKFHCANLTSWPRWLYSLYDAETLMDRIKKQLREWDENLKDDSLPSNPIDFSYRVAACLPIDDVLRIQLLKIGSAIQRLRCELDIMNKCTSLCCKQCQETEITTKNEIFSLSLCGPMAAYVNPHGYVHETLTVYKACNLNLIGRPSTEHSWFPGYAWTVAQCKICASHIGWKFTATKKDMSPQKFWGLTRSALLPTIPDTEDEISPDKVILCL

MV4-11 [3] = experiment: Induction of apoptosis in human MV4-11 cells assessed as viable cells at 30 nM after 6 hrs by AnnexinV-FITC/propidium iodide staining based flow cytometry (reference value: 90.1 %); assay type: functional; conditions: read-out: Activity
MV4-11 [4] = experiment: Induction of apoptosis in human MV4-11 cells assessed as total apoptotic cells at 250 nM after 6 hrs by AnnexinV-FITC/propidium iodide staining based flow cytometry (reference value: 9.75 %); assay type: functional
MV4-11 [5] = experiment: Induction of apoptosis in human MV4-11 cells assessed as total apoptotic cells at 500 nM after 6 hrs by AnnexinV-FITC/propidium iodide staining based flow cytometry (reference value: 9.75 %); assay type: functional
MV4-11 [6] = experiment: Induction of apoptosis in human MV4-11 cells assessed as viable cells at 100 nM after 6 hrs by AnnexinV-FITC/propidium iodide staining based flow cytometry (reference value: 90.1 %); assay type: functional; conditions: read-out: Activity
MV4-11 [7] = experiment: Induction of apoptosis in human MV4-11 cells assessed as necrotic cells at 30 nM after 6 hrs by AnnexinV-FITC/propidium iodide staining based flow cytometry (reference value: 0.16 %); assay type: functional
MV4-11 [8] = experiment: Induction of apoptosis in human MV4-11 cells assessed as late apoptotic cells at 250 nM after 6 hrs by AnnexinV-FITC/propidium iodide staining based flow cytometry (reference value: 4.29%); assay type: functional
MV4-11 [9] = experiment: Induction of apoptosis in human MV4-11 cells assessed as viable cells at 1000 nM after 6 hrs by AnnexinV-FITC/propidium iodide staining based flow cytometry (reference value: 90.1 %); assay type: functional; conditions: read-out: Activity
MV4-11 [10] = experiment: Induction of apoptosis in human MV4-11 cells assessed as late apoptotic cells at 100 nM after 6 hrs by AnnexinV-FITC/propidium iodide staining based flow cytometry (reference value: 4.29%); assay type: functional
MV4-11 [11] = experiment: Induction of apoptosis in human MV4-11 cells assessed as late apoptotic cells at 1000 nM after 6 hrs by AnnexinV-FITC/propidium iodide staining based flow cytometry (reference value: 4.29%); assay type: functional
[12] = biological target: Protein cereblon/Cyclin-dependent kinase 1 (Homo sapiens) (UniProt P06493+Q96SW2); experiment: PROTAC activity at CRBN/CDK1 in human MV4-11 cells assessed as induction of CDK1 degradation at 31.25 to 500 nM measured after 3 hrs by western blot analysis; assay type: cell-based; conditions: dose 31.25-500 nM
[13] = biological target: T1, Protein cereblon/Cyclin-dependent kinase 9; experiment: Protac activity at CRBN/CDK9 in human MV4-11 cells assessed as induction of CDK9 degradation by measuring MCL-1 protein expression level at 250 nM measured after 12 hrs by western blot analysis; assay type: cell-based
Target sequence in this assay (P50750 whole entry, looked up): as the sequence (P50750 whole entry, looked up) above
Target sequence in this assay (Q96SW2 whole entry, looked up): as the sequence (Q96SW2 whole entry, looked up) above

[14] = biological target: T1, Protein cereblon/Cyclin-dependent kinase 9; experiment: Protac activity at CRBN/CDK9 in human MV4-11 cells assessed as induction of CDK9 degradation by measuring downregulation of CDK9 expression level at 250 nM measured after 1 hr by western blot analysis; assay type: cell-based
Target sequence in this assay (P50750 whole entry, looked up): as the sequence (P50750 whole entry, looked up) above
Target sequence in this assay (Q96SW2 whole entry, looked up): as the sequence (Q96SW2 whole entry, looked up) above

MV4-11 [15] = experiment: Induction of apoptosis in human MV4-11 cells assessed as early apoptotic cells at 500 nM after 6 hrs by AnnexinV-FITC/propidium iodide staining based flow cytometry (reference value: 5.36 %); assay type: functional
MV4-11 [16] = experiment: Induction of apoptosis in human MV4-11 cells assessed as viable cells at 250 nM after 6 hrs by AnnexinV-FITC/propidium iodide staining based flow cytometry (reference value: 90.1 %); assay type: functional; conditions: read-out: Activity
[17] = biological target: T1, Protein cereblon/Cyclin-dependent kinase 9; experiment: Protac activity at CRBN/CDK9 in human MV4-11 cells assessed as induction of CDK9 degradation by measuring downregulation of MCL-1 protein expression level at 250 nM by western blot analysis; assay type: cell-based; conditions: time 1-12 hrs, TDE = time-dependent effect
Target sequence in this assay (P50750 whole entry, looked up): as the sequence (P50750 whole entry, looked up) above
Target sequence in this assay (Q96SW2 whole entry, looked up): as the sequence (Q96SW2 whole entry, looked up) above

[18] = biological target: T1, Protein cereblon/Cyclin-dependent kinase 9; experiment: Protac activity at CRBN/CDK9 in human MV4-11 cells assessed as induction of CDK9 degradation incubated for 6 hrs by Western blot assay; assay type: cell-based
Target sequence in this assay (P50750 whole entry): as the sequence (P50750 whole entry, looked up) above
Target sequence in this assay (Q96SW2 whole entry): as the sequence (Q96SW2 whole entry, looked up) above

[19] = biological target: T1, Protein cereblon/Cyclin-dependent kinase 9; experiment: Protac activity at CRBN/CDK9 in human MV4-11 cells assessed as induction of CDK9 degradation by measuring downregulation of CDK9 expression level at 250 nM by western blot analysis; assay type: cell-based; conditions: time 1-12 hrs, TDE = time-dependent effect
Target sequence in this assay (P50750 whole entry, looked up): as the sequence (P50750 whole entry, looked up) above
Target sequence in this assay (Q96SW2 whole entry, looked up): as the sequence (Q96SW2 whole entry, looked up) above

MV4-11 [20] = experiment: Induction of apoptosis in human MV4-11 cells assessed as early apoptotic cells at 100 nM after 6 hrs by AnnexinV-FITC/propidium iodide staining based flow cytometry (reference value: 5.36 %); assay type: functional
MV4-11 [21] = experiment: Induction of apoptosis in human MV4-11 cells assessed as early apoptotic cells at 1000 nM after 6 hrs by AnnexinV-FITC/propidium iodide staining based flow cytometry (reference value: 5.36 %); assay type: functional
MV4-11 [22] = experiment: Induction of apoptosis in human MV4-11 cells assessed as total apoptotic cells at 1000 nM after 6 hrs by AnnexinV-FITC/propidium iodide staining based flow cytometry (reference value: 9.75 %); assay type: functional
MV4-11 [23] = experiment: Antiproliferative activity against human MV4-11 cells incubated for 72 hrs by MTT assay; assay type: functional, cell-based; conditions: MV4-11, 72 h
MV4-11 [24] = experiment: Potency index, ratio of BAY-1143572 IC50 to test compound IC50 for antiproliferative activity against human MV4-11 cells incubated for 72 hrs by MTT assay; assay type: functional
MV4-11 [25] = experiment: Induction of apoptosis in human MV4-11 cells assessed as viable cells at 500 nM after 6 hrs by AnnexinV-FITC/propidium iodide staining based flow cytometry (reference value: 90.1 %); assay type: functional; conditions: read-out: Activity
MV4-11 [26] = experiment: Induction of apoptosis in human MV4-11 cells assessed as necrotic cells at 250 nM after 6 hrs by AnnexinV-FITC/propidium iodide staining based flow cytometry (reference value: 0.16 %); assay type: functional
HCT-116 = experiment: Antiproliferative activity against human HCT-116 cells incubated for 72 hrs by MTT assay; assay type: functional, cell-based; conditions: HCT-116, 72 h
MV4-11 [27] = experiment: Induction of apoptosis in human MV4-11 cells assessed as necrotic cells at 100 nM after 6 hrs by AnnexinV-FITC/propidium iodide staining based flow cytometry (reference value: 0.16 %); assay type: functional
[28] = biological target: T1, Protein cereblon/Cyclin-dependent kinase 9; experiment: Protac activity at CRBN/CDK9 in human MV4-11 cells assessed as induction of CDK9 degradation at 250 nM pretreated for 2 hrs with CDK9 inhibitor, […] followed by incubation with compound for 6 hrs by western blot analysis; assay type: cell-based
Target sequence in this assay (P50750 whole entry, looked up): as the sequence (P50750 whole entry, looked up) above
Target sequence in this assay (Q96SW2 whole entry, looked up): as the sequence (Q96SW2 whole entry, looked up) above

MV4-11 [29] = experiment: Induction of apoptosis in human MV4-11 cells assessed as total apoptotic cells at 100 nM after 6 hrs by AnnexinV-FITC/propidium iodide staining based flow cytometry (reference value: 9.75 %); assay type: functional
[30] = biological target: T1, Protein cereblon/Cyclin-dependent kinase 9; experiment: Protac activity at CRBN/CDK9 in human MV4-11 cells assessed as induction of CDK9 degradation at 250 nM pretreated for 2 hrs with proteasome inhibitor, MG132 followed by incubation with compound for 6 hrs by western blot analysis; assay type: cell-based

Protein cereblon/Cyclin-dependent kinase 1 (Homo sapiens), sequence (P06493 whole entry, looked up): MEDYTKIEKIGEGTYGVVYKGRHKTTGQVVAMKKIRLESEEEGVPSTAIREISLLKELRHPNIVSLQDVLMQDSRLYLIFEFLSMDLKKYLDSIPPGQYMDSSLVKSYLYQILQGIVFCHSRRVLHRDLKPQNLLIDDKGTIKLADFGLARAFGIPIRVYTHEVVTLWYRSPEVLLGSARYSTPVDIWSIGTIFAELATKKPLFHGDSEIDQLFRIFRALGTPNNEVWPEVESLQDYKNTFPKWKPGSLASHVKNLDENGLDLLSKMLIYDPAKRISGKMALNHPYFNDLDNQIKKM
Protein cereblon/Cyclin-dependent kinase 1 (Homo sapiens), sequence (Q96SW2 whole entry, looked up): as the sequence (Q96SW2 whole entry, looked up) above

- IC50 (HepG2): 2110 nM
- IC50 (B16): 1400 nM
- Activity [2]: Active
- Activity [12]: inactive
- Activity [13]: 0%
- Activity [14]: Active
- Activity [17]: Tde
- DC50 [18]: 7.62 nM
- Activity [19]: Tde
- IC50 (MV4-11 [23]): 25 nM
- IC50 (HCT-116): 3080 nM
- Activity [28]: inactive
- Activity [30]: inactive
SMILES: COc1cc(F)ccc1-c1ncnc(Nc2cccc(CS(C)(=O)=NC(=O)CCCCCCCC(=O)NCCNc3cccc4c3C(=O)N(C3CCC(=O)NC3=O)C4=O)c2)n1 (stereo not drawn)
- Activity (MV4-11 [1]): 0.77%
- viability at 0.03 µM (MV4-11 [3]): 77.6%
- Activity (MV4-11 [4]): 59.4%
- Activity (MV4-11 [5]): 67.9%
- viability at 0.1 µM (MV4-11 [6]): 72.7%
- Activity (MV4-11 [7]): 0.28%
- Activity (MV4-11 [8]): 14.3%
- viability at 1 µM (MV4-11 [9]): 28.2%
- Activity (MV4-11 [10]): 15.3%
- Activity (MV4-11 [11]): 16%
- Activity (MV4-11 [15]): 54.2%
- viability at 0.25 µM (MV4-11 [16]): 40.1%
- Activity (MV4-11 [20]): 11.5%
- Activity (MV4-11 [21]): 54.4%
- Activity (MV4-11 [22]): 80.4%
- Ratio IC50 (MV4-11 [24]): 20
- viability at 0.5 µM (MV4-11 [25]): 31.3%
- Activity (MV4-11 [26]): 0.47%
- Activity (MV4-11 [27]): 0.47%
- Activity (MV4-11 [29]): 26.8%

From ChEMBL document CHEMBL4819004, “Discovery of selective CDK9 degraders with enhancing antiproliferative activity through PROTAC conversion” (Eur J Med Chem, 2021)
